Assay results: patent US20080009548A1, “AMBROXOL FOR THE TREATMENT OF ACUTE PAIN” (priority 2003, published 2008)
pIC50: −log10 of the molar value.

Experiments:
[1] = tested on: voltage-dependent calcium channels; assay: Patch-Clamp measurement of current through voltage-dependent calcium channels in posterior root ganglia neurons; type: cell-based; settings: neuron cultures from adult rat posterior root ganglia; voltage jumps from −80 mV to 0 mV for 50 ms
From the text: Voltage-dependent calcium channels play an important role in the transmission of pain-related excitation in the nervous system. The blocking of these channels has been described as being helpful for the treatment of acute pain (KA Sluka (1998), JPET 287, 232-237; J Devulder et al. (2001), J Pain Sympt Management 22, 622-626). […] Neurons were dissected from posterior root ganglia of adult rats and placed in short-term culture. The cells were investigated electrophysiologically by the Patch-Clamp method (voltage terminal), and the flow of current through voltage-dependent calcium channels was measured after electrical stimulation (voltage jumps from −80 mV to 0 mV holding potential for 50 ms) in the presence and absence of ambroxol.

[2] = tested on: Tetrodotoxin-sensitive currents; type: cell-based, rat; settings: read-out: IC50 of tetrodotoxin-sensitive currents; neuron cultures from the posterior root ganglia of adult rats
[3] = molecular target: tetrodotoxin-resistant sodium channels (Rattus norvegicus, UniProt Q62968); type: cell-based; settings: neuron cultures from the posterior root ganglia of adult rats; read-out: half-maximal inhibition of tetrodotoxin-resistant sodium channels
human GluR1/2 receptors = molecular target: T1, human GluR1/2 receptors (Homo sapiens, UniProt P42261+P42262); assay: Patch-Clamp measurement of glutamate-induced membrane currents in HEK 293 cells expressing GluR1/2 receptors; type: cell-based; settings: HEK 293 cells expressing human GluR1/2; 1 mM glutamate for 1 s, holding potential −80 mV
T1 construct: expressed in transfected cells; host or cells: HEK 293
Procedure: Ionotropic glutamate receptors of the AMPA sub-type are also essential for the excitatory neurotransmission. […] The blocking of AMPA receptors has been described as being helpful for the treatment of acute pain (e.g., ji Szekely et al. (1997), EJP 336, 143-154). HEK 293 cells which expressed functionally recombinant human GluR1/2 receptors were electrophysiologically investigated by the Patch-Clamp method ([…]). The administration of 1 mM glutamate (for 1 s at a holding potential of −80 mV) induced membrane currents which were inhibited by the joint administration of ambroxol.

T1 sequence (P42261 19-906): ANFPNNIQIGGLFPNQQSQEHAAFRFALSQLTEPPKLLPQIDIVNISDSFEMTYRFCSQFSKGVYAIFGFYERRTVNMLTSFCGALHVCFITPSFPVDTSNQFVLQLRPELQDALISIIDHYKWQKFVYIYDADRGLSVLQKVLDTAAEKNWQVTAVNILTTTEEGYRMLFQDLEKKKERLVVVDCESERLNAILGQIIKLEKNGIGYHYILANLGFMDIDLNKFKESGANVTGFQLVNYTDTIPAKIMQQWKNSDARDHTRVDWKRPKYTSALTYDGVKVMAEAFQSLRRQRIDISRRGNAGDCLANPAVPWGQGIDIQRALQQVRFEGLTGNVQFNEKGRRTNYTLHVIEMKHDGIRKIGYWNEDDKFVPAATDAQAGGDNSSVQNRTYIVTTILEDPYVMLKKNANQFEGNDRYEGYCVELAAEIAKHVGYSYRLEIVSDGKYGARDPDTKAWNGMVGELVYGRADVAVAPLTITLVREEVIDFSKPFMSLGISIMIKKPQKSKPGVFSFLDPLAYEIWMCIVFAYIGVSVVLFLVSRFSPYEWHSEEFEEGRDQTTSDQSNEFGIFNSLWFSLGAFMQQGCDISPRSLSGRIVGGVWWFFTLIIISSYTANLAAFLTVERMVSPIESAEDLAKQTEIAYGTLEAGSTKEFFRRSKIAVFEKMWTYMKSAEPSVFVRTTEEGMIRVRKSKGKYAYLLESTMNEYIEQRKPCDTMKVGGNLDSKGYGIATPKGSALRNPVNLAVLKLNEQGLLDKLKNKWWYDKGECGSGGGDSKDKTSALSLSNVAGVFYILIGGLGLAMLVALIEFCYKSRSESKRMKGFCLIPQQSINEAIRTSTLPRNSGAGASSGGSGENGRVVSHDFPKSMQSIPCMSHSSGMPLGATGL
T1 sequence (P42262 22-883 limits assumed): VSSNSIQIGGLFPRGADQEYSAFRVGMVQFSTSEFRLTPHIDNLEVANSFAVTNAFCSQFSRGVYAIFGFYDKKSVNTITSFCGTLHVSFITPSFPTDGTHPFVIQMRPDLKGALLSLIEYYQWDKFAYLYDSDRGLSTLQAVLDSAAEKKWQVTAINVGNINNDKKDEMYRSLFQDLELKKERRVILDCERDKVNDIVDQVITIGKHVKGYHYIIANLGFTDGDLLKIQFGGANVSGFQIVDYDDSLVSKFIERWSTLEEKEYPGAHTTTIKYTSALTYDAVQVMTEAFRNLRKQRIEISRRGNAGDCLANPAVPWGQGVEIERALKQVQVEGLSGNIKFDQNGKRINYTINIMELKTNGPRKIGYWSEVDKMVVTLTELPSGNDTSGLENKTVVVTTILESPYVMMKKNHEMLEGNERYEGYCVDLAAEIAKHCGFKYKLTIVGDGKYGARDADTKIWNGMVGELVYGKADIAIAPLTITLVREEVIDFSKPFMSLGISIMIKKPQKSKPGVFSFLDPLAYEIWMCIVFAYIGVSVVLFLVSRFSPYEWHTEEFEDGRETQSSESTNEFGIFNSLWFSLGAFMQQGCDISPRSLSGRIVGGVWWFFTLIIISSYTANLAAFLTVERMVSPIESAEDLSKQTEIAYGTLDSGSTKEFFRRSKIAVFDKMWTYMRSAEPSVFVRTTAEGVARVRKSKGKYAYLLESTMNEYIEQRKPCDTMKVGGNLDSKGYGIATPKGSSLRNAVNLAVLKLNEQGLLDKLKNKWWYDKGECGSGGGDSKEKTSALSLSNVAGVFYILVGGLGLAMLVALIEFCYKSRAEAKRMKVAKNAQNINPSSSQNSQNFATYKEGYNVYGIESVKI

For `Nc1c(Br)cc(Br)cc1CN[C@H]1CC[C@H](O)CC1` [ambroxol, trans-4-(2-amino-3,5-dibromobenzylamino)cyclohexanol], the “concentrations that block voltage-dependent calcium channels” value [1] was 10 to 1000 µM, the pIC50 [2] was under 4.00 and the pIC50 [3] was 4.46. The “concentrations that inhibit glutamate-induced membrane currents” value (human GluR1/2 receptors) was 30 to 1000 µM.
